Molecular target: recombinant human NUDT5 (Homo sapiens, UniProt Q9UKK9)
Test: NUDT5 inhibitor activity by malachite green reporter assay
Type: biochemical
Conditions: Table 3; 6 nM NUDT5, 50 μM ADP-Ribose, 15 minutes at room temperature
Summary of the method: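 Coupled ADP-ribose hydrolysis in 10 mM Tris-acetate pH 8.0, 40 mM NaCl, 10 mM Mg acetate, 0.005% Tween-20, 1 mM DTT: 6 nM NUDT5, 50 μM ADP-Ribose, 10 U/ml alkaline phosphatase, 15 min at room temperature. Pi read by malachite green at 630 nm; compounds 100 μM–1.7 nM, 3-fold; IC50 by curve fit.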

**Q.** `Cn1c(=O)c2c(nc(N3CC4(COC4)C3)n2Cc2nnc(-c3ccc(Cl)c(Cl)c3)o2)n(C)c1=O` [Example 12, 7-{[5-(3,4-dichlorophenyl)-1,3,4-oxadiazol-2-yl]methyl}-1,3-dimethyl-8-{2-oxa-6-azaspiro[3.3]heptan-6-yl}-2,3,6,7-tetrahydro-1H-purine-2,6-dione] was tested. Which IC50 did it give?
**A.** 42.5 nM

**Q.** How did the IC50 turn out when `Cn1c(=O)c2c(nc(N3CCN(CCO)CC3)n2Cc2nnc(-c3ccc(Cl)c(Cl)c3)o2)n(C)c1=O` [Example 31, 7-{[5-(3,4-dichlorophenyl)-1,3,4-oxadiazol-2-yl]methyl}-8-[4-(2-hydroxyethyl)piperazin-1-yl]-1,3-dimethyl-2,3,6,7-tetrahydro-1H-purine-2,6-dione] was run?
**A.** 106 nM

**Q.** Which IC50 does the source give for `CCCCCCN1CCN(c2nc3c(c(=O)n(C)c(=O)n3C)n2Cc2nnc(-c3cccc(C)c3)o2)CC1` [Example 53, 8-(4-hexylpiperazin-1-yl)-1,3-dimethyl-7-{[5-(3-methylphenyl)-1,3,4-oxadiazol-2-yl]methyl}-2,3,6,7-tetrahydro-1H-purine-2,6-dione] here?
**A.** 806 nM

**Q.** For `CC1CN(c2nc3c(c(=O)n(C)c(=O)n3C)n2Cc2nnc(-c3ccc(Cl)c(Cl)c3)o2)CC(C)N1` (centres unmarked) [Example 29, 7-{[5-(3,4-dichlorophenyl)-1,3,4-oxadiazol-2-yl]methyl}-8-(3,5-dimethylpiperazin-1-yl)-1,3-dimethyl-2,3,6,7-tetrahydro-1H-purine-2,6-dione], which IC50 is on record?
**A.** 43.8 nM

**Q.** `CCCCCCN1CCN(c2nc3c(c(=O)n(C)c(=O)n3C)n2Cc2nnc(-c3ccc(Cl)c(Cl)c3)o2)CC1` [Example 15, 7-{[5-(3,4-dichlorophenyl)-1,3,4-oxadiazol-2-yl]methyl}-8-(4-hexylpiperazin-1-yl)-1,3-dimethyl-2,3,6,7-tetrahydro-1H-purine-2,6-dione] was tested. Which IC50 did it give?
**A.** 432 nM

**Q.** Which IC50 does the source give for `Cn1c(=O)c2c(nc(N3CCC(N)C3)n2Cc2nnc(-c3ccc(Cl)c(Cl)c3)o2)n(C)c1=O` (centres unmarked) [Example 25, 8-(3-aminopyrrolidin-1-yl)-7-{[5-(3,4-dichlorophenyl)-1,3,4-oxadiazol-2-yl]methyl}-1,3-dimethyl-2,3,6,7-tetrahydro-1H-purine-2,6-dione] here?
**A.** 30 nM

**Q.** `COc1nc2c(c(=O)n(C)c(=O)n2C)n1Cc1nnc(-c2cccc(C)c2)o1` [Example 52, 8-methoxy-1,3-dimethyl-7-{[5-(3-methylphenyl)-1,3,4-oxadiazol-2-yl]methyl}-2,3,6,7-tetrahydro-1H-purine-2,6-dione] was tested. Which IC50 did it give?
**A.** 378 nM

**Q.** How did the IC50 turn out when `Cn1c(=O)c2c(nc(N3CC4CCCCC4C3)n2Cc2nnc(-c3ccc(Cl)c(Cl)c3)o2)n(C)c1=O` (centres unmarked) [Example 11, 7-{[5-(3,4-dichlorophenyl)-1,3,4-oxadiazol-2-yl]methyl}-1,3-dimethyl-8-(octahydro-1H-isoindol-2-yl)-2,3,6,7-tetrahydro-1H-purine-2,6-dione] was run?
**A.** 84.6 nM

**Q.** Which IC50 does the source give for `CC(C)c1nc2c(c(=O)n(C)c(=O)n2C)n1Cc1nnc(-c2ccc(Cl)c(Cl)c2)o1` [Example 62, 7-{[5-(3,4-dichlorophenyl)-1,3,4-oxadiazol-2-yl]methyl}-1,3-dimethyl-8-(propan-2-yl)-2,3,6,7-tetrahydro-1H-purine-2,6-dione] here?
**A.** > 1000 nM

**Q.** Which IC50 does the source give for `Cn1c(=O)c2c(nc(N3CCC3)n2Cc2nnc(-c3ccc(Cl)c(Cl)c3)o2)n(C)c1=O` [Example 36, 8-(azetidin-1-yl)-7-{[5-(3,4-dichlorophenyl)-1,3,4-oxadiazol-2-yl]methyl}-1,3-dimethyl-2,3,6,7-tetrahydro-1H-purine-2,6-dione] here?
**A.** 34 nM

**Q.** How did the IC50 turn out when `Cn1c(=O)c2c(nc(N3CCC(CO)CC3)n2Cc2nnc(-c3ccc(Cl)c(Cl)c3)o2)n(C)c1=O` [Example 40, 7-{[5-(3,4-dichlorophenyl)-1,3,4-oxadiazol-2-yl]methyl}-8-[4-(hydroxymethyl)piperidin-1-yl]-1,3-dimethyl-2,3,6,7-tetrahydro-1H-purine-2,6-dione] was run?
**A.** 20.3 nM

**Q.** How did the IC50 turn out when `C[C@H]1CN(c2nc3c(c(=O)n(C)c(=O)n3C)n2Cc2nnc(-c3ccc(Cl)c(Cl)c3)o2)CCN1` [Example 46, 7-{[5-(3,4-dichlorophenyl)-1,3,4-oxadiazol-2-yl]methyl}-1,3-dimethyl-8-[(3S)-3-methylpiperazin-1-yl]-2,3,6,7-tetrahydro-1H-purine-2,6-dione] was run?
**A.** 12 nM

**Q.** `COCCN1CCN(c2nc3c(c(=O)n(C)c(=O)n3C)n2Cc2nnc(-c3cccc(C)c3)o2)CC1` [Example 57, 8-[4-(2-methoxyethyl)piperazin-1-yl]-1,3-dimethyl-7-{[5-(3-methylphenyl)-1,3,4-oxadiazol-2-yl]methyl}-2,3,6,7-tetrahydro-1H-purine-2,6-dione] was tested. Which IC50 did it give?
**A.** > 1000 nM

Same assay, conditions: Table 4; 6 nM NUDT5, 50 μM ADP-Ribose, 15 minutes at room temperature

**Q.** Which IC50 does the source give for `Cn1c(=O)c2c(nc(N3CCNCC3)n2Cc2nnc(-c3ccc(Cl)cc3)o2)n(C)c1=O` [Example 108, 7-{[5-(4-chlorophenyl)-1,3,4-oxadiazol-2-yl]methyl}-1,3-dimethyl-8-(piperazin-1-yl)-2,3,6,7-tetrahydro-1H-purine-2,6-dione] here?
**A.** 99 nM

**Q.** How did the IC50 turn out when `Cn1c(=O)c2c(nc(NCC(=O)OC(C)(C)C)n2Cc2nnc(-c3ccc(Cl)c(Cl)c3)o2)n(C)c1=O` [Example 84, tert-butyl 2-[(7-{[5-(3,4-dichlorophenyl)-1,3,4-oxadiazol-2-yl]methyl}-1,3-dimethyl-2,6-dioxo-2,3,6,7-tetrahydro-1H-purin-8-yl)amino]acetate] was run?
**A.** 93.6 nM

**Q.** How did the IC50 turn out when `CN(C)CCN(C)c1nc2c(c(=O)n(C)c(=O)n2C)n1Cc1nnc(-c2ccc(Cl)c(Cl)c2)o1` [Example 135, 7-{[5-(3,4-dichlorophenyl)-1,3,4-oxadiazol-2-yl]methyl}-8-{[2-(dimethylamino)ethyl](methyl)amino}-1,3-dimethyl-2,3,6,7-tetrahydro-1H-purine-2,6-dione] was run?
**A.** 96.3 nM

**Q.** With `Cn1c(=O)c2c(nc(N3CCNCC3)n2Cc2coc(-c3ccc(Cl)c(Cl)c3)n2)n(C)c1=O` [Example 72, 7-{[2-(3,4-dichlorophenyl)-1,3-oxazol-4-yl]methyl}-1,3-dimethyl-8-(piperazin-1-yl)-2,3,6,7-tetrahydro-1H-purine-2,6-dione] as the compound, how does the IC50 read?
**A.** 21 nM

**Q.** For `Cn1c(=O)c2c(nc(Cl)n2Cc2nnc(-c3ccc(Cl)nc3)o2)n(C)c1=O` [Example 95, 8-chloro-7-{[5-(6-chloropyridin-3-yl)-1,3,4-oxadiazol-2-yl]methyl}-1,3-dimethyl-2,3,6,7-tetrahydro-1H-purine-2,6-dione], which IC50 is on record?
**A.** 1380 nM

**Q.** With `COc1cc(-c2nnc(Cn3c(N4CCNCC4)nc4c3c(=O)n(C)c(=O)n4C)o2)ccc1C` [Example 119, 7-{[5-(3-methoxy-4-methylphenyl)-1,3,4-oxadiazol-2-yl]methyl}-1,3-dimethyl-8-(piperazin-1-yl)-2,3,6,7-tetrahydro-1H-purine-2,6-dione] as the compound, how does the IC50 read?
**A.** 35.7 nM

**Q.** `Cn1c(=O)c2c(nc(-n3ccnc3)n2Cc2nnc(-c3ccc(Cl)c(Cl)c3)o2)n(C)c1=O` [Example 66, 7-{[5-(3,4-dichlorophenyl)-1,3,4-oxadiazol-2-yl]methyl}-8-(1H-imidazol-1-yl)-1,3-dimethyl-2,3,6,7-tetrahydro-1H-purine-2,6-dione] was tested. Which IC50 did it give?
**A.** 58.2 nM

**Q.** `Cn1c(=O)c2c(nc(Cl)n2Cc2nc(-c3ccc(Cl)cc3)no2)n(C)c1=O` [Example 69, 8-chloro-7-{[3-(4-chlorophenyl)-1,2,4-oxadiazol-5-yl]methyl}-1,3-dimethyl-2,3,6,7-tetrahydro-1H-purine-2,6-dione] was tested. Which IC50 did it give?
**A.** 296 nM

**Q.** For `COc1ccc(-c2nnc(Cn3c(Cl)nc4c3c(=O)n(C)c(=O)n4C)o2)cc1` [Example 73, 8-chloro-7-{[5-(4-methoxyphenyl)-1,3,4-oxadiazol-2-yl]methyl}-1,3-dimethyl-2,3,6,7-tetrahydro-1H-purine-2,6-dione], which IC50 is on record?
**A.** 1260 nM

**Q.** For `Cn1c(=O)c2c(nc(N3CCNCC3)n2Cc2nnc(-c3ccccc3)o2)n(C)c1=O` [Example 107, 1,3-dimethyl-7-[(5-phenyl-1,3,4-oxadiazol-2-yl)methyl]-8-(piperazin-1-yl)-2,3,6,7-tetrahydro-1H-purine-2,6-dione], which IC50 is on record?
**A.** 212 nM

**Q.** With `COc1ccc(-c2nnc(Cn3c(Cl)nc4c3c(=O)n(C)c(=O)n4C)o2)cc1Cl` [Example 99, 8-chloro-7-{[5-(3-chloro-4-methoxyphenyl)-1,3,4-oxadiazol-2-yl]methyl}-1,3-dimethyl-2,3,6,7-tetrahydro-1H-purine-2,6-dione] as the compound, how does the IC50 read?
**A.** 73 nM

**Q.** How did the IC50 turn out when `Cn1c(=O)c2c(nc(Cl)n2Cc2nnc(-c3ccc(C(F)(F)F)cc3)o2)n(C)c1=O` [Example 102, 8-chloro-1,3-dimethyl-7-({5-[4-(trifluoromethyl)phenyl]-1,3,4-oxadiazol-2-yl}methyl)-2,3,6,7-tetrahydro-1H-purine-2,6-dione] was run?
**A.** 484 nM

**Q.** Which IC50 does the source give for `COc1cc(-c2nnc(Cn3c(N4CCC(N(C)C)CC4)nc4c3c(=O)n(C)c(=O)n4C)o2)ccc1C` [Example 126, 8-[4-(dimethylamino)piperidin-1-yl]-7-{[5-(3-methoxy-4-methylphenyl)-1,3,4-oxadiazol-2-yl]methyl}-1,3-dimethyl-2,3,6,7-tetrahydro-1H-purine-2,6-dione] here?
**A.** 39.1 nM

**Q.** With `COc1cc(-c2nnc(Cn3c(NCCC(N)=O)nc4c3c(=O)n(C)c(=O)n4C)o2)ccc1C` [Example 132, 3-[(7-{[5-(3-methoxy-4-methylphenyl)-1,3,4-oxadiazol-2-yl]methyl}-1,3-dimethyl-2,6-dioxo-2,3,6,7-tetrahydro-1H-purin-8-yl)amino]propanamide] as the compound, how does the IC50 read?
**A.** 157 nM

**Q.** Which IC50 does the source give for `COc1ccc(-c2cc(Cn3c(N4CCNCC4)nc4c3c(=O)n(C)c(=O)n4C)on2)cc1` [Example 78, 7-{[3-(4-methoxyphenyl)-1,2-oxazol-5-yl]methyl}-1,3-dimethyl-8-(piperazin-1-yl)-2,3,6,7-tetrahydro-1H-purine-2,6-dione] here?
**A.** 491 nM

**Q.** How did the IC50 turn out when `COc1cccc(-c2nnc(Cn3c(Cl)nc4c3c(=O)n(C)c(=O)n4C)o2)c1` [Example 92, 8-chloro-7-{[5-(3-methoxyphenyl)-1,3,4-oxadiazol-2-yl]methyl}-1,3-dimethyl-2,3,6,7-tetrahydro-1H-purine-2,6-dione] was run?
**A.** 596 nM

From US20210128566A1, “NOVEL FUNCTIONALIZED PURINE-2,6-DIONES AND THEIR USE IN MEDICINE” (THOMAS HELLEDAYS STIFTELSE FÖR MEDICINSK FORSKNING, priority 2017, published 2021)
